The numbers were not newly measured in PMC9430692, “BRET-Based Self-Cleaving Biosensors for SARS-CoV-2 3CLpro Inhibitor Discovery” (Microbiology Spectrum, 2022), which cites them from elsewhere.

SMILES strings stand for the structures.

The series concerns SARS-CoV-2. As to conditions: Vero E6 cells, MOI 0.01; ref [8]; read-out: Reported EC50 against SARS-CoV-2.

By EC50 is commonly meant the concentration giving half of the maximal effect. As to `CC(C)(C)NC(=O)N[C@H](C(=O)N1C[C@H]2[C@@H]([C@H]1C(=O)NC(CC1CCC1)C(=O)C(N)=O)C2(C)C)C(C)(C)C` (stereo partly shown) [Boceprevir], the EC50 is 15.6 µM.
